# Test results reported in patent US9284368B2, “Substituted pyrazines as cadherin-11 inhibitors” (Georgetown University, priority 2009, dated 2016).
# Entries after “also recorded” stand apart in the source; their conditions may differ.
# Tests used:
# cadherin-11 = target: T1, cadherin-11 (Homo sapiens, UniProt P55287); assay: Initial functional screening of in silico hits for block of cadherin-11 function; type: cell-based; conditions: in vitro screening of commercially purchased in silico hits
# T1 construct: Endogenous cadherin-11 expression in MDA-MB-231 breast and PC-3 prostate cancer cells was knocked down; endogenous in cells; host or cells: MDA-MB-231 breast cancer cells (PC-3 partly)
# T1 sequence (P55287 54-796): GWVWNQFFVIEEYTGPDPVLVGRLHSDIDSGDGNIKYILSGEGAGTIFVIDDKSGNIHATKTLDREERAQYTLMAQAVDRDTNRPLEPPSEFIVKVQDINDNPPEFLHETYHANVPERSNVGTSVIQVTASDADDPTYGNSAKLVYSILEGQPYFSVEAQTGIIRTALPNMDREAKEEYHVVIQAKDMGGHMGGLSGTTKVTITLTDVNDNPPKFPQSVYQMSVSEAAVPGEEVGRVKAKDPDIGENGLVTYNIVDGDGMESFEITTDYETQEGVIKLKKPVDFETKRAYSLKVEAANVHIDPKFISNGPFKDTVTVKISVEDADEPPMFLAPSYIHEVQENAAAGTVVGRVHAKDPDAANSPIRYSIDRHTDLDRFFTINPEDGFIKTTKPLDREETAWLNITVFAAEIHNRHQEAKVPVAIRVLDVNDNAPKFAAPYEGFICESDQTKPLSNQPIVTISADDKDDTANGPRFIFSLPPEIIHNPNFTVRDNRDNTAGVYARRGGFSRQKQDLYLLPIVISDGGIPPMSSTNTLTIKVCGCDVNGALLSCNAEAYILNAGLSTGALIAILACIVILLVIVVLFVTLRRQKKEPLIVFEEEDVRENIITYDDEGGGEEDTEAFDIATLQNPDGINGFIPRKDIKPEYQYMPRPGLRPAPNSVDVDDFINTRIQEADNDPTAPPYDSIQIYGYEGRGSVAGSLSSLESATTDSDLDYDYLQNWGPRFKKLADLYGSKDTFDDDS
# Protocol: These two pharmacophores were further refined and screened again to maximize solubility and then retested using various in vitro assays. […] Finally, it was also observed that the compound was not cytotoxic up to a 100 μM dosage in vitro, as well as a pilot study in nude mice.
# Cadherin-11 association with certain poor prognosis cancers, proliferation of basal-type breast cancer cells, and tumorigenesis in mice make it a viable therapeutic target for these malignancies. […] A computer-based method of structural modeling was used to predict conformations capable of binding these specific hydrophobic pockets. The ectodomain1 (EC1) dimer adhesive interface is formed by exchange of N-terminal β strands between two cadherin-11 molecules. The dimer interface has a large hydrophobic region (unique to type II cadherins) with two conserved tryptophan residues. […] This structure was used to base molecular simulations and produce pharmacophores designed to block one or both of the two adjacent regions (P1 and P2) predicted necessary for cadherin-11 function in cell-cell adhesion. Three in-silico strategies were implemented: 1) generation of flexible receptor conformations, 2) receptor-based dynamic pharmacophore screening and 3) small molecule docking simulations. The 29 most promising candidates identified by in silico screen were subjected to free energy simulations at 100 picosecond intervals, taking into consideration the induced fit effect, which accounts for conformation flexibility both before and after binding/docking simulations. […] These 29 compounds were purchased commercially and tested. Many of the compounds initially screened inhibited cadherin-11 function at 10 μM range, attesting to the in silico screening efficiency. […] The potency of Compound 1 likely stems from its shape and moderate structural flexibility, enabling it to accommodate to and bind tightly within the tryptophan binding pocket. Though this pocket is largely hydrophobic, a network of hydrogen bonds between Compound 1 and R23, H25, P88, S90 confers specificity and rigid binding. […]
# [1] = system: MDA-MB-231 breast cancer cells; assay: Proliferation assay (crystal violet / luminescence); type: cell-based; conditions: MDA-MB-231 cells, 100 nM
# Protocol: (§1) For crystal violet assays, cells were plated in triplicate in 96-well tissue culture dishes at 4 separate densities. Cells were grown in DMEM supplemented with 5% fetal bovine serum for a period of 5 days. Dishes representing growth were stained with crystal violet on Days 1, 3 and 5 after plating, by removing growth medium, staining with 50 μL of crystal violet stain for 10 min, then gently washing in dH2O and allowing to dry overnight. Stained cells were solubilized in 100 μL 50/50 (v/v) 0.1M sodium citrate and ethanol for 15 min, and absorbance was read at 630λ.
# (§2) For luminescence, the cells were plated in triplicate in 24-well white-walled tissue culture dishes (Wallac; Waltham, Mass.) and grown in DMEM supplemented with 5% fetal bovine serum for 5 days. On the fifth day, the cells were resuspended in an equal volume of Cell-Titer-Glo Luminescence Reagent (Promega; Madison, Wis.), which measures ATP, and incubated for 20 min at room temperature. The assay was measured using luminescence.
# (§3) Cells were plated in triplicate at four separate densities and grown in DMEM with 5% FBS for five days. Cells were stained with crystal violet on days 1, 3, and 5 after plating, as described in Example 5. Absorbance was read at 630λ using a BioRad Ultramark Microplate Imaging System with Microplate Manager 5.1 software. […]
# [2] = system: MDA-MB-231 breast cancer cells; assay: Soft agar colony growth assay; type: cell-based; conditions: MDA-MB-231 cells, 100 nM
# Protocol: To further characterize proliferative ability of cancer cells lacking cadherin-11, anchorage independent growth was studied in the stable cell lines. 6-well tissue culture dishes were coated with 1.2 mL 0.6% Bacto-agar (Difco; Franklin Lakes, N.J.) in DMEM supplemented with 5% fetal bovine serum. Once set, the cells were plated in triplicate in 0.3% agar (15,000/1 mL in each well) and layered gently on top of the coated agar. The plates were incubated for 10 days to 2 weeks prior to reading using a colony counter (Omnicon; Manassas, Va.) and visualized using a SMZ-1500 stereoscope (Nikon; Tokyo, JP).
# as §2, with “as described above.” for “and grown in DMEM supplemented with 5% fetal bovine serum for 5 days.”, “final” for “fifth”, “day,” for “day, the”
# Cells (5,000) were plated in 0.3% agar layered on top of 0.6% agar in 35-mm^2 plates. After 2 weeks, the colonies were counted in an Omnicon 3600 automated colony counter (BioLogics, Inc.; Manassas, Va.) and visualized using a SMZ-1500 stereoscope (Nikon; Tokyo, JP). Confirmation assays were completed in 24-well dishes and analyzed using Cell-Titer-Glo Reagent (see proliferation assays).
# MCF7 breast cancer cells [3] = assay: Matrigel outgrowth (invasion) assay; type: cell-based; conditions: MCF7 breast cancer cells (expressing E and P-cadherin), 1 μM and 10 μM
# Protocol: (§4) Upon finding significant differences in growth and migration in cancer cells with reduced cadherin-11 expression, invasive capability of the stable cell lines was explored in a 3-dimensional matrix. The cells were plated in duplicate in a 12-well glass-bottom dish (MatTek; Ashland, Mass.) coated with 150 μL of Matrigel (BD Biosciences; San Jose, Calif.). The cells (5,000 cells/100 μl medium) were gently plated on top of the Matrigel layer directly and incubated 30 min at 37° C. Growth medium (1 mL) was gently added to each well, and growth was visualized using a 5× objective on an AH2 Vanox inverted microscope (Olympus; Tokyo, JP) equipped with a CCD camera.
# (§5) Cells (5,000 cells/100 μl medium) were plated atop 150 μL layer of Matrigel (BD Biosciences; San Jose, Calif.) in duplicate in 12-well glass-bottom dishes (MatTek; Ashland, Mass.) and incubated for 30 minutes at 37° C. Growth medium (1 mL) was gently added to each well. Growth was visualized using a 5× objective on AH2 Vanox inverted microscope (Olympus; Tokyo, JP).
# [4] = system: MDA-MB-231 breast cancer cells; assay: Matrigel outgrowth (invasion) assay; type: cell-based; conditions: MDA-MB-231 cells, 100 nM
# Protocol: as §4, §5
# [5] = system: MDA-MB-435 melanoma cells; assay: Matrigel outgrowth (invasion) assay; type: cell-based; conditions: MDA-MB-435 melanoma cells (expressing N-cadherin), 1 μM and 10 μM
# Protocol: as §4, §5
# MCF7 breast cancer cells [6] = assay: Proliferation assay; type: cell-based; conditions: MCF7 breast cancer cells (expressing E and P-cadherin), 1 μM and 10 μM
# Protocol: as §1, §2, §3
# [7] = system: MDA-MB-435 melanoma cells; assay: Proliferation assay; type: cell-based; conditions: MDA-MB-435 melanoma cells (expressing N-cadherin), 1 μM and 10 μM
# Protocol: as §1, §2, §3
# [8] = system: PC-3 prostate cancer cells; assay: Growth phenotypes in PC-3 cells; type: cell-based
# Cytotoxicity in vitro = type: cell-based; conditions: up to a 100 μM dosage in vitro
# nude mice = assay: Pilot toxicity study in nude mice; type: in vivo
# [9] = In vivo acute toxicity (OECD Up-and-Down Procedure); conditions: mouse, female Balb/c mice, IP injection, observed for 14 days
# Protocol: Female Balb/c mice, 8-12 weeks old, were obtained from the National Cancer Institute (Bethesda, Md.). A stock solution of 200 mg/ml of Compound 1 was prepared with a 1:1 ratio of DMSO and PEG. The working solution was diluted with PEG. Compound 1 (Sd-133) was administered at a constant volume (0.01 ml/1 g body weight) over the range of doses to be tested by varying the concentration of the dosing preparation according to the OECD Acute Toxicity-Up-and Down Procedure. […] Observations included toxicity onset time, symptoms, duration and the time elapsed for recovery or death. Based on the study, the LD50 of Compound 1 was estimated at 2000 mg/kg.
# [10] = system: L-cells with stably-transfected cadherin-11; assay: Cell aggregation assay, cadherin-11 transfected L-cells; type: cell-based; conditions: cadherin-11 L-cells, shaken one hour at 100 rpm
# Protocol: (§6) Cell aggregation assays were performed on L-cells with stably-transfected empty vector or cadherin-11. The cells were seeded and grown overnight, trypsinized with additional EDTA, resuspended in DMEM with 20% FBS, and counted. The cells were spun down and resuspended in DMEM containing no treatment, 0.5 mM EDTA, 0.25 mM EDTA, 0.1 mM EDTA, or cadherin-11 inhibitors including 1 TM of Compound 1 (Sd-133), 1 TM of Compound 2 (Sd-133A), 1 TM of Compound 3 (Sd-133B), 1 TM of Compound 11 (Sd-12), 1 TM of Compound 12 (Sd-48), 1 TM of Compound 17 (Sd-20), 1 TM of Compound 18 (Sd-51), 1 TM of Compound 19 (Sd-22), or 1 TM of Compound 20 (Sd-23). The cells were allowed to recover for one hour and were then put into uncoated 12 well plates and shaken for one hour at 100 rpm at 2.25×10^5 cells/mL. The cells were then counted using Microsizer Coulter Counter (Beckman Coulter, Inc; Brea, Calif.). Counts over 20 uM in length were considered aggregates, while counts below 20 uM were considered as single cells. The counts were confirmed by manual counting.
# [11] = system: L-cells with stably-transfected empty vector; assay: Cell aggregation assay, empty vector L-cells; type: cell-based; conditions: shaken one hour at 100 rpm
# Protocol: as §6
smiles,measurement,setting,value
Oc1ccc(-c2cccnc2-c2ccccc2)cc1 [Compound 1],concentration range at which cadherin-11 is functionally blocked (effective range),cadherin-11,nanomolar ranges
same,cell proliferation,[1],significantly blocked; also recorded: significantly inhibited
same,colony growth,[2],significantly blocked; also recorded: significantly inhibited
same,invasion,MCF7 breast cancer cells [3],fails to block; also recorded: failed to alter
same,invasion,[4],significantly blocked; also recorded: significantly inhibited
same,invasion,[5],fails to block; also recorded: failed to alter
same,proliferation,MCF7 breast cancer cells [6],fails to block; also recorded: failed to alter
same,proliferation,[7],fails to block; also recorded: failed to alter
same,growth phenotypes,[8],partially inhibited
same,cytotoxicity,Cytotoxicity in vitro,not cytotoxic
same,cytotoxicity,nude mice,not cytotoxic
same,LD50 at 14 days,[9],2000 mg/kg
Oc1ccc(-c2nc3ccccc3nc2-c2cccc(Cl)c2)cc1 [Compound 2],aggregate formation,[10],decrease
same,aggregate formation,[11],remained stable
O=C1c2ccccc2C(=O)c2c1oc1ccc3ccccc3c21 [Compound 9],concentration range at which cadherin-11 is functionally blocked (effective range),cadherin-11,nanomolar ranges
Oc1ccc2c(c1)c1ccccc1c1ncccc21 [Compound 10],concentration range at which cadherin-11 is functionally blocked (effective range),cadherin-11,nanomolar ranges
Oc1ccc(-c2nc3ccccc3nc2-c2ccccc2)cc1 [Compound 3],aggregate formation,[10],decrease
same,aggregate formation,[11],remained stable
